# How the values were obtained:
# [1] = biological target: Calcium/calmodulin-dependent protein kinase kinase 1 (Homo sapiens) (UniProt Q8N5S9); test: Inhibition of human recombinant CaMKK1 at 40 nM in presence of ATP by radiometric assay relative to control
# [2] = biological target: Protein kinase C beta type (Homo sapiens) (UniProt P05771); test: Inhibition of human recombinant PKCb at 40 nM related to control ULK1
# [3] = biological target: Focal adhesion kinase 1 (Homo sapiens) (UniProt Q05397); test: Inhibition of human recombinant FAK at 40 nM in presence of ATP by radiometric assay relative to control
# [4] = biological target: T1, Serine/threonine-protein kinase Nek1 (Homo sapiens) (UniProt Q96PY6); test: Inhibition of human recombinant NEK1 at 15 nM related to control ULK1
# T1 sequence (whole entry): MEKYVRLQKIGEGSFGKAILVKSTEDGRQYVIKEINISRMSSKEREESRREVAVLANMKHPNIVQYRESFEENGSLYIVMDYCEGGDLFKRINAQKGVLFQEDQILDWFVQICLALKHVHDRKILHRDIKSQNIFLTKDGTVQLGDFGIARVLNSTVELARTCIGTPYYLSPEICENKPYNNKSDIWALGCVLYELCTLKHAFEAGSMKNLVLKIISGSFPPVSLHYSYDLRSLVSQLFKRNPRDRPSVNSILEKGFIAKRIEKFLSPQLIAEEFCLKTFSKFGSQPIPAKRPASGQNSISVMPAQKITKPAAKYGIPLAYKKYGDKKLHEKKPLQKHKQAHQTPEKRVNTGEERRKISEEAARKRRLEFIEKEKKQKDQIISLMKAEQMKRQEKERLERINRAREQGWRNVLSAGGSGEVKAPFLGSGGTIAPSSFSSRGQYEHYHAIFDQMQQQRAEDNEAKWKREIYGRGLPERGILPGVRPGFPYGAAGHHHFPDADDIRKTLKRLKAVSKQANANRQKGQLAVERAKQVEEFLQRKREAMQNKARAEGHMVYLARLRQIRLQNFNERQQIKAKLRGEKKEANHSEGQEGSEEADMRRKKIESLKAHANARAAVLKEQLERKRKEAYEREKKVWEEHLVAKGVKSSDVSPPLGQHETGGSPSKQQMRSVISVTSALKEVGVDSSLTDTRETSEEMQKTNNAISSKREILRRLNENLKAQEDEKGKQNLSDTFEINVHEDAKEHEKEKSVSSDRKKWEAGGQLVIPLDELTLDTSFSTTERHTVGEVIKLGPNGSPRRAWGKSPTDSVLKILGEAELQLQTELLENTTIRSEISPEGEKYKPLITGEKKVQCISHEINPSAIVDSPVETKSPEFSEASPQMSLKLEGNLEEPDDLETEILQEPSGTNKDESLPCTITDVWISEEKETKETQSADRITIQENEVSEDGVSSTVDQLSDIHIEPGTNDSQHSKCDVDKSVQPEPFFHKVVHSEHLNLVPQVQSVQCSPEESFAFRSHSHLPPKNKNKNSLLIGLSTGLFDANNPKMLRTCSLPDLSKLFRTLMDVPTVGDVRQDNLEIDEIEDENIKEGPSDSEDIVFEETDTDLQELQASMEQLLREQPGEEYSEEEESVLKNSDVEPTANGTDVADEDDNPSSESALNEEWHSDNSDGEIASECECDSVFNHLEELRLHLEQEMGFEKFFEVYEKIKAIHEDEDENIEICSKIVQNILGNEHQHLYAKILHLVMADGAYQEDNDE
# [5] = biological target: T2, Mitogen-activated protein kinase kinase kinase 7 (Homo sapiens) (UniProt O43318); test: Inhibition of human recombinant TAK1 at 15 nM related to control ULK1
# T2 sequence (whole entry): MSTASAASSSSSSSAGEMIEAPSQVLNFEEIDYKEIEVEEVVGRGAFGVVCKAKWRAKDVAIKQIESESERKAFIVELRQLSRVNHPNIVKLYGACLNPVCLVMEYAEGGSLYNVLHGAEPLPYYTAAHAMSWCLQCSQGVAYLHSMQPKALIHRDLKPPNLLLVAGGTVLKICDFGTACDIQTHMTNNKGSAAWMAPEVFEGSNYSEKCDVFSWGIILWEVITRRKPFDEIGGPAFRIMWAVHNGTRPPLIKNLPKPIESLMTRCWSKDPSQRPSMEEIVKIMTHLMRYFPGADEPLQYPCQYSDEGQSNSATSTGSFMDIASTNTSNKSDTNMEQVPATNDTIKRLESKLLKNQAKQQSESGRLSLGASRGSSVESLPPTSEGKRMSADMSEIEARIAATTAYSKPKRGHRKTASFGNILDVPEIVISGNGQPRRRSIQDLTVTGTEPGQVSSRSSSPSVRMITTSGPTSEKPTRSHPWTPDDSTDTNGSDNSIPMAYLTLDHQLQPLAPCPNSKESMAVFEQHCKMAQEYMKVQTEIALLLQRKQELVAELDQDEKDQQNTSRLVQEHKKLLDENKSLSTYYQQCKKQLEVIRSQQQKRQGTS
# [6] = biological target: Mitogen-activated protein kinase 11 (Homo sapiens) (UniProt Q15759); test: Inhibition of human recombinant p38beta at 15 nM related to control ULK1
# [7] = biological target: Casein kinase I isoform gamma-1 (Homo sapiens) (UniProt Q9HCP0); test: Inhibition of human recombinant CK1g1 at 15 nM in presence of ATP by radiometric assay relative to control
# Sequence of Casein kinase I isoform gamma-1 (Homo sapiens) (Q9HCP0 whole entry, looked up, canonical isoform): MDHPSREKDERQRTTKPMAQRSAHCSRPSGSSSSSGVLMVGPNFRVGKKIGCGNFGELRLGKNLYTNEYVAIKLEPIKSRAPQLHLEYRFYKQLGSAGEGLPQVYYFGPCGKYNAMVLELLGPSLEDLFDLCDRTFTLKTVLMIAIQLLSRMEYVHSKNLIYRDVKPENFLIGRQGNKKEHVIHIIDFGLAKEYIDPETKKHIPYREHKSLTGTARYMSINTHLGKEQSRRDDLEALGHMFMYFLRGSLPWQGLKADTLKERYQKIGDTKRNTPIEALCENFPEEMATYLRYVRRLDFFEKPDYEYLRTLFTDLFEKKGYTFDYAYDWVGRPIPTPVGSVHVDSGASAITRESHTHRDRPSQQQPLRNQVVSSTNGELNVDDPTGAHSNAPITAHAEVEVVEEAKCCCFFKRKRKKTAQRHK
# Sequence of Focal adhesion kinase 1 (Homo sapiens) (Q05397 2-1052 limits assumed): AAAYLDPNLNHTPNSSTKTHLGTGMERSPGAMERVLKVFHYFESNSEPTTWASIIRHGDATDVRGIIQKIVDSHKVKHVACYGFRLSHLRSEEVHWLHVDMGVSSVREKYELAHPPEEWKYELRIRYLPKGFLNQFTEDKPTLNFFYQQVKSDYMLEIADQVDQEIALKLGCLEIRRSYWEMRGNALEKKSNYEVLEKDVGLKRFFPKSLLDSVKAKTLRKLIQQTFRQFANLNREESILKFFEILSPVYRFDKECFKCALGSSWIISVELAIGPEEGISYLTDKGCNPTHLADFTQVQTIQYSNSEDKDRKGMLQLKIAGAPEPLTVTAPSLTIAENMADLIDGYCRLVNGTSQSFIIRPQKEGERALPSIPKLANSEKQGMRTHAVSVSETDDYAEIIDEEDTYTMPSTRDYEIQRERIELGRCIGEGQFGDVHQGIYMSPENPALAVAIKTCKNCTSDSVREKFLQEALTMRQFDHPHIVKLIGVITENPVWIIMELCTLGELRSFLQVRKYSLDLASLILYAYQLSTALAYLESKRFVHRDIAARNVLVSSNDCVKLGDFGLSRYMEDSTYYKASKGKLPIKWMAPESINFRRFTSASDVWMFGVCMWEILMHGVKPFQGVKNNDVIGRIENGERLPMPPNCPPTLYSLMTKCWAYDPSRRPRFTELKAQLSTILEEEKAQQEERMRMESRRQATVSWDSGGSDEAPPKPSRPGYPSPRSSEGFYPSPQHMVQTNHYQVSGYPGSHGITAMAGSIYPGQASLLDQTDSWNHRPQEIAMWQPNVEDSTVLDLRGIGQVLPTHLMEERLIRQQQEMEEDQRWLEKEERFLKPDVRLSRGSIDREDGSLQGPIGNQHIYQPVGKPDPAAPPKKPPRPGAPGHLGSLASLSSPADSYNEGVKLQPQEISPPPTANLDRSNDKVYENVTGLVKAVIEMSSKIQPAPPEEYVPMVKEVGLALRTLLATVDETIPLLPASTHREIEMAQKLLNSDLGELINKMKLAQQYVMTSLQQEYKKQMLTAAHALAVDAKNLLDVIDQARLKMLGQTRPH
# Sequence of Protein kinase C beta type (Homo sapiens) (P05771 2-671 limits assumed): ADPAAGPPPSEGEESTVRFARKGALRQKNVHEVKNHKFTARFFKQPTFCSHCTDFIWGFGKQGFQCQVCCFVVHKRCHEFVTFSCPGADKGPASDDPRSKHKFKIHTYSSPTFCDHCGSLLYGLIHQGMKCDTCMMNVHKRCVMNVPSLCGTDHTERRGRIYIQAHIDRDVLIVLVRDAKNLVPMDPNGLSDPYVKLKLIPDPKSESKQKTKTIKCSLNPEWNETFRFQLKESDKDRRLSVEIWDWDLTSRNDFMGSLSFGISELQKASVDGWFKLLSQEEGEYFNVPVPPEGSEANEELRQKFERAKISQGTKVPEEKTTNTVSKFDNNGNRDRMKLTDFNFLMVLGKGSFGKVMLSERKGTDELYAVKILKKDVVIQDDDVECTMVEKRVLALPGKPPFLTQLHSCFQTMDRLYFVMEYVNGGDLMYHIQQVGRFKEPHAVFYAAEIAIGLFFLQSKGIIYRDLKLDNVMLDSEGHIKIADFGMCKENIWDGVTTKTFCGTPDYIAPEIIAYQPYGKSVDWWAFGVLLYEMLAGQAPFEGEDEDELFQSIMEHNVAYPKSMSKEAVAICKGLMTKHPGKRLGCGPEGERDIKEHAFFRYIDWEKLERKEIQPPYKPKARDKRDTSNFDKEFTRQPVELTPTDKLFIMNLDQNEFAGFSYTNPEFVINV
# Sequence of Mitogen-activated protein kinase 11 (Homo sapiens) (Q15759 whole entry, canonical isoform): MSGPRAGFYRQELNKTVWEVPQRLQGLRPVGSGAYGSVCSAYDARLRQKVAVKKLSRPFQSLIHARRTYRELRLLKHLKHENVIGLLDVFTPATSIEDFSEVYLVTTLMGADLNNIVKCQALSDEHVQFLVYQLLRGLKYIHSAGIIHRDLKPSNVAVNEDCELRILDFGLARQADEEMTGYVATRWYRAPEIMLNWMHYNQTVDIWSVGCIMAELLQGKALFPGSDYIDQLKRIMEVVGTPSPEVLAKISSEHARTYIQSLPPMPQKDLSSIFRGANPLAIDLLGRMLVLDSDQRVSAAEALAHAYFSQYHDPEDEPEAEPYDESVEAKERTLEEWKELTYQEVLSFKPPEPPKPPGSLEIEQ
# Sequence of Calcium/calmodulin-dependent protein kinase kinase 1 (Homo sapiens) (Q8N5S9 whole entry, looked up): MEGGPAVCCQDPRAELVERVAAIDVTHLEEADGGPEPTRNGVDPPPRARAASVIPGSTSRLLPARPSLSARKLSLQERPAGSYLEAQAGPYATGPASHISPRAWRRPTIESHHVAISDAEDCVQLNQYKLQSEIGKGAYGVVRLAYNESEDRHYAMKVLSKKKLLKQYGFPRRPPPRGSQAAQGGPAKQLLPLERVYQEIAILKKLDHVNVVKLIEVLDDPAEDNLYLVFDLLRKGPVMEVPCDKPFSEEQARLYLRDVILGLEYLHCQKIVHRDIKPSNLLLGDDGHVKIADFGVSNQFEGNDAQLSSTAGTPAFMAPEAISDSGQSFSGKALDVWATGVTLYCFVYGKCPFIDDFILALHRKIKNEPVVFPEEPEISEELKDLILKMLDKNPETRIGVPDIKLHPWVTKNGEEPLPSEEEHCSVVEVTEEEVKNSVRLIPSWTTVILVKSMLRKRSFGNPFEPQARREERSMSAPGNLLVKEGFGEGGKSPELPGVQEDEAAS
inhibition [1],fold change (FC) [2],inhibition [3],fold change (FC) [4],fold change (FC) [5],fold change (FC) [6],inhibition [7],Compound
0%,0.04,0%,,,,,O=C(N[C@@H](C1CC1)C(F)(F)F)c1cc(-c2cnn3cc(-c4ccc(F)cc4)cnc23)cs1
,,,0.03,0.01,0.01,0%,CC(C)[C@H](NC(=O)c1cc(-c2cnn3cc(-c4ccc(OCCN5CCCCC5)cc4)cnc23)cs1)C(F)(F)F

# — ChEMBL document CHEMBL5653631, “A Potent and Selective ULK1 Inhibitor Suppresses Autophagy and Sensitizes Cancer Cells to Nutrient Stress” (iScience, 2018)
